The target of assay [1] is Receptor tyrosine-protein kinase erbB-2 (Homo sapiens, UniProt P04626). Description: Inhibition of HER2 (unknown origin) incubated for 40 mins by Kinase-Glo Max assay. The assay is classed as cell-based, Sf9. (Kinase-Glo measures the ATP left after a reaction by luminescence.)
Assay [2] is described as follows: Photocytotoxicity against human Lapatinib-resistant MDA-MB-453 assessed as reduction in cell viability incubated for 72 hrs in presence of LED light irradiation of 100 mW/cm2 at 400 to 700 nm by CCK-8 assay. Type of assay: functional, cell-based. The following applies: Lapatinib-resistant MDA-MB-453, light or radiation study. (Tetrazolium assays rely on reduction of a dye to a coloured formazan, in cell work by metabolically active cells.)

A short description of assay [3]: Photocytotoxicity against human Lapatinib-resistant MDA-MB-453 assessed as inhibition of cell growth under hypoxic condition incubated for 72 hrs in presence of LED light irradiation of 100 mW/cm2 at 400 to 700 nm by CCK-8 assay. The assay is classed as functional, cell-based. The following applies: Lapatinib-resistant MDA-MB-453, light or radiation study.
In assay [4] the test system is MDA-MB-453. Description: Induction of intracellular ROS generation in human MDA-MB-453 cells assessed as increase in green fluorescence signal at 0.5 uM pretreated for 6 hrs followed by irradiation with 400 to 700 nm 100 mW/cm2 LED light for 10 min by DCFH2-DA staining based flow cytometry analysis. The assay is classed as functional, cell-based. The conditions noted are these: time 370.0 min. A general note: Flow cytometry measures light scatter and fluorescence of single cells or particles in a stream.

Assay [5] addresses T1, ErbB-2/ErbB-3 heterodimer (Homo sapiens, UniProt P04626+P21860). Nature of the assay: Induction of HER2/HER3 degradation in human MDA-MB-453 cells assessed as increase in HER2/HER3 heterodimer incubated for 24 hrs by Co-immunoprecipitation analysis. Type of assay: cell-based.
Assay [6] has as its target T1, ErbB-2/ErbB-3 heterodimer. Nature of the assay: Induction of HER2/HER3 degradation in human MDA-MB-453 cells assessed as decrease in HER2/HER3 heterodimer preincubated for 24 hrs followed by irradiation with 400 to 700 nm 100 mW/cm2 LED light for 10 min by Co-Immunoprecipitation Analysis. The assay is classed as cell-based. The following applies: time 1450.0 min.
The target in assay [7] is T1, ErbB-2/ErbB-3 heterodimer. Nature of the assay: Induction of HER2/HER3 degradation in human MDA-MB-453 cells assessed as HER2 degradation preincubated for 24 hrs followed by irradiation with 400 to 700 nm 100 mW/cm2 LED light for 10 min by Western blot analysis. The assay is classed as cell-based.
Assay [8] deals with T1, ErbB-2/ErbB-3 heterodimer. Description: Induction of HER2/HER3 degradation in human MDA-MB-453 cells assessed as HER3 degradation preincubated for 24 hrs followed by irradiation with 400 to 700 nm 100 mW/cm2 LED light for 10 min by Western blot analysis. The assay is classed as cell-based.
Assay [9] concerns the target Serine/threonine-protein kinase AKT (Homo sapiens) (UniProt P31751+Q9Y243+P31749). Nature of the assay: Inhibition of AKT phosphorylation in human MDA-MB-453 cells at 0.5 uM preincubated for 24 hrs followed by irradiation with 400 to 700 nm 100 mW/cm2 LED light for 10 min by Western blot analysis. The conditions noted are these: time 1450.0 min. Type of assay: cell-based.

Assay [10] has as its target Mitogen-activated protein kinase; ERK1/ERK2 (Homo sapiens) (UniProt P27361+P28482). Nature of the assay: Inhibition of Erk1/2 phosphorylation in human MDA-MB-453 cells at 0.5 uM preincubated for 24 hrs followed by irradiation with 400 to 700 nm 100 mW/cm2 LED light for 10 min by Western blot analysis. The assay is classed as cell-based. The conditions noted are these: time 1450.0 min.

Assay [11] relates to MDA-MB-453. Description: Induction of apoptosis in human MDA-MB-453 cells assessed as increase in cleaved caspase-3 expression at 0.5 uM preincubated for 24 hrs followed by irradiation with 400 to 700 nm 100 mW/cm2 LED light for 10 min by Western blot analysis. The assay is classed as functional, cell-based. The following applies: time 1450.0 min.
The subject of assay [12] is MDA-MB-453. Description: Induction of apoptosis in human MDA-MB-453 cells assessed as decrease in Bcl-2 expression at 0.5 uM preincubated for 24 hrs followed by irradiation with 400 to 700 nm 100 mW/cm2 LED light for 10 min by Western blot analysis. The following applies: time 1450.0 min. Type of assay: functional, cell-based.
For assay [13], the system named is MDA-MB-453. Description: Induction of apoptosis in human MDA-MB-453 cells assessed as increase in BAX/Bcl-2 ratio at 0.5 uM preincubated for 24 hrs followed by irradiation with 400 to 700 nm 100 mW/cm2 LED light for 10 min by Western blot analysis. The assay is classed as functional, cell-based. The conditions noted are these: time 1450.0 min.
In assay [14] the test system is MDA-MB-453. Nature of the assay: Photocytotoxicity against human MDA-MB-453 cells cultured as 3D spheroids assessed as reduction in diameter of tumor spheroid size at 0.5 to 10 uM pretreated with compound for 10 mins and measured after 72 hrs in presence of 400 to 700 nm 100 mW/cm2 LED light by bright-field microscopic analysis. Type of assay: functional, cell-based. The following applies: dose 0.5-10 µM, time 4330.0 min.

In assay [15] the test system is MDA-MB-453. Nature of the assay: Photocytotoxicity against human MDA-MB-453 cells cultured as 3D spheroids assessed as reduction in diameter of tumor spheroid size at 0.5 to 10 uM incubated for 72 hrs by bright-field microscopic analysis. Type of assay: functional, cell-based. The conditions noted are these: dose 0.5-10 µM.
For assay [16], the system named is MDA-MB-453. Description: Photocytotoxicity against human MDA-MB-453 cells cultured as 3D spheroids assessed as reduction in cell density at 0.5 to 10 uM incubated for 72 hrs by bright-field microscopic analysis. The following applies: dose 0.5-10 µM. Type of assay: functional, cell-based.
The subject of assay [17] is MDA-MB-453. Description: Photocytotoxicity against human MDA-MB-453 cells cultured as 3D spheroids assessed as reduction in cell viability incubated for 72 hrs by CCK-8 assay. The assay is classed as functional, cell-based. The following applies: MDA-MB-453, 72 h.
Assay [18] relates to MDA-MB-453. Description: Photocytotoxicity against human MDA-MB-453 cells cultured as 3D spheroids assessed as reduction in cell viability pretreated for 10 mins and measured after 72 hrs in presence of 400 to 700 nm 100 mW/cm2 LED light by CCK-8 assay. The assay is classed as functional, cell-based.
Assay [19] concerns MDA-MB-453. Nature of the assay: Photocytotoxicity against human MDA-MB-453 cells cultured as 3D spheroids assessed as increase in dead cells by measuring red fluorescence intensity pretreated with compound for 10 mins and measured after 72 hrs in presence of 400 to 700 nm […] LED light by calcein-AM/PI staining based fluorescence analysis. Type of assay: functional, cell-based. The conditions noted are these: time 4330.0 min.

Assay [20] in a line: Photocytotoxicity against human Lapatinib-resistant MDA-MB-453 cells assessed as reduction in cell viability by CCK-8 assay. Type of assay: functional, cell-based.
Assay [21] concerns MDA-MB-453. Description: Induction of intracellular ROS generation in human MDA-MB-453 cells assessed as increase in green fluorescence signal at […] pretreated for 6 hrs followed by irradiation with 400 to 700 nm 100 mW/cm2 LED light for 10 min by DCFH2-DA staining based flow cytometry analysis. Type of assay: functional, cell-based. The conditions noted are these: time 370.0 min.

We go through 4 compounds from ChEMBL document CHEMBL5360595, “Ligand-Directed Photodegradation of Interacting Proteins: Oxidative HER2/HER3 Heterodimer Degradation with a Lapatinib-Derived Photosensitizer” (J Med Chem, 2023).

Each structure is given as a SMILES string. Calls of active or inactive are those of the source. The calls are words filed in the database; no cut-off is given here.

T1 sequence (P04626 whole entry): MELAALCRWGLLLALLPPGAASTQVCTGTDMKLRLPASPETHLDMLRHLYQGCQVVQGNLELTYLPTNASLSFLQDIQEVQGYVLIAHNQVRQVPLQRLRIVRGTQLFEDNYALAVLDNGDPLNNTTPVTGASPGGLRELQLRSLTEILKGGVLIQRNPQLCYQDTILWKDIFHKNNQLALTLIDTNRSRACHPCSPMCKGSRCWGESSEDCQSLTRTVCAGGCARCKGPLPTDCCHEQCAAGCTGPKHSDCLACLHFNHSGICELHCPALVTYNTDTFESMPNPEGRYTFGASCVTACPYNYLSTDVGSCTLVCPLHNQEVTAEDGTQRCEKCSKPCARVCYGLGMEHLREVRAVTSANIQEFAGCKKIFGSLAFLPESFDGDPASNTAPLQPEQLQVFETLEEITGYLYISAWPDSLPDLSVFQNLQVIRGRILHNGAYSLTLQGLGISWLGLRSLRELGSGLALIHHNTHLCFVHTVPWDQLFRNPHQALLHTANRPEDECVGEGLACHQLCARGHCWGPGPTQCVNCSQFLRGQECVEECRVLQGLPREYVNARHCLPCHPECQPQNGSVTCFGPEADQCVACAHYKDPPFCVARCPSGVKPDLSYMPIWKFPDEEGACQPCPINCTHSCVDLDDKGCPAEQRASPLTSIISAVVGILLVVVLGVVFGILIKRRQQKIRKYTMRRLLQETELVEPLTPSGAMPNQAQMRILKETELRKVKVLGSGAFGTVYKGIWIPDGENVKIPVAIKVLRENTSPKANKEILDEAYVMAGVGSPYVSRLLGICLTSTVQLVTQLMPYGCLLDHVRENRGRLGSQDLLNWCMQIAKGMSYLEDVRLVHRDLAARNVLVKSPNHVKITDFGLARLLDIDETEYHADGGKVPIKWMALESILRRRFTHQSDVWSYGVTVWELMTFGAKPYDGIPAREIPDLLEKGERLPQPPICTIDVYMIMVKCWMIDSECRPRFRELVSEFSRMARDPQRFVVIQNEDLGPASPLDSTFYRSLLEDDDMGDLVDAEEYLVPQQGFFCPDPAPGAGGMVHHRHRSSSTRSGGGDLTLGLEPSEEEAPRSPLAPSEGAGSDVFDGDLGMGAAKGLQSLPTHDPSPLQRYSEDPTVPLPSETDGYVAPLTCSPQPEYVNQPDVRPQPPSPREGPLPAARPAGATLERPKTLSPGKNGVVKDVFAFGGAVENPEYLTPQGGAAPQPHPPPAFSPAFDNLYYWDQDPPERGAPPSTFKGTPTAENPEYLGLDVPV
T1 sequence (P21860 whole entry): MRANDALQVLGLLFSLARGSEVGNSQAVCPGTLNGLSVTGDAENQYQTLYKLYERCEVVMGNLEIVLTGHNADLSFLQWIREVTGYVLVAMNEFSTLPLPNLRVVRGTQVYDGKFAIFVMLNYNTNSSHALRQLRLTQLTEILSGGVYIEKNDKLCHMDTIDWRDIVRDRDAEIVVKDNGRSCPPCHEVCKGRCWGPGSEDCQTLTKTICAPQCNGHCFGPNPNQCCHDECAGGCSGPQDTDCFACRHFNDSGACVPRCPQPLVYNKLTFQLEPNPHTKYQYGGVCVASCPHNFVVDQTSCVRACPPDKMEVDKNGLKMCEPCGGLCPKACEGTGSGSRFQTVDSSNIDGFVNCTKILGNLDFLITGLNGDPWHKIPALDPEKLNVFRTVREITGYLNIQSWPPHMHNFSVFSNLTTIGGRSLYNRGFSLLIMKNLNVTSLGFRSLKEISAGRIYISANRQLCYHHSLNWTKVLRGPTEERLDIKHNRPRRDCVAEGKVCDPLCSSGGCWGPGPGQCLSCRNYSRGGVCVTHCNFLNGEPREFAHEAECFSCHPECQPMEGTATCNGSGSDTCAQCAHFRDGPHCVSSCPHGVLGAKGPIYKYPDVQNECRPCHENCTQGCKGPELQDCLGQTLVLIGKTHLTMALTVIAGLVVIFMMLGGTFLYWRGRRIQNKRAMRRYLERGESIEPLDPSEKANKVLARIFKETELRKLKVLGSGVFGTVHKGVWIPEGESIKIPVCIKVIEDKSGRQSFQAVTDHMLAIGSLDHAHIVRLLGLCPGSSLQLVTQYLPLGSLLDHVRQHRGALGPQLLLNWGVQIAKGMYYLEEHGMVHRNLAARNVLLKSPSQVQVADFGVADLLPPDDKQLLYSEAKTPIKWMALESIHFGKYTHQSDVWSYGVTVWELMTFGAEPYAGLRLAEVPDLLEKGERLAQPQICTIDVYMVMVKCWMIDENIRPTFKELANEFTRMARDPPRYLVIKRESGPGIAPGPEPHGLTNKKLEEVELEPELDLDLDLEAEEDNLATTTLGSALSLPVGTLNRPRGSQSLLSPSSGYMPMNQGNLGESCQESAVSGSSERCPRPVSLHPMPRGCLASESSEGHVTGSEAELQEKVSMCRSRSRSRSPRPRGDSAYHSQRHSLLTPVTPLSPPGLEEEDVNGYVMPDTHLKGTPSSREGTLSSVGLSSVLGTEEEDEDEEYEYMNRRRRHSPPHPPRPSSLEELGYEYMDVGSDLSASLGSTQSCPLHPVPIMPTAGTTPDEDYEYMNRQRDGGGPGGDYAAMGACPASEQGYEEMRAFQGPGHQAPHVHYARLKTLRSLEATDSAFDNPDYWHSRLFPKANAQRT
Sequence of Receptor tyrosine-protein kinase erbB-2 (P04626 whole entry): as the sequence (P04626 whole entry) above
Sequence of Mitogen-activated protein kinase; ERK1/ERK2 (Homo sapiens) (P27361 whole entry, looked up): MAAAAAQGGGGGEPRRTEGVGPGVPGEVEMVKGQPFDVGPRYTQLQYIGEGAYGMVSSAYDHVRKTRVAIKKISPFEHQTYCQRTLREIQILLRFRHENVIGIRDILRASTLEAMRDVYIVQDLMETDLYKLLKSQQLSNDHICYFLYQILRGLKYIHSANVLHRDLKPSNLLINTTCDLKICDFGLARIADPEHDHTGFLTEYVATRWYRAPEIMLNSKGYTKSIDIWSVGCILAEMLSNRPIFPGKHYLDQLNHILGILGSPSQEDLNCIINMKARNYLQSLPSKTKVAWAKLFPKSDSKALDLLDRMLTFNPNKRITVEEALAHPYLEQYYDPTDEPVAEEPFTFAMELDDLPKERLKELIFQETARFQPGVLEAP
Sequence of Mitogen-activated protein kinase; ERK1/ERK2 (Homo sapiens) (P28482 whole entry, looked up): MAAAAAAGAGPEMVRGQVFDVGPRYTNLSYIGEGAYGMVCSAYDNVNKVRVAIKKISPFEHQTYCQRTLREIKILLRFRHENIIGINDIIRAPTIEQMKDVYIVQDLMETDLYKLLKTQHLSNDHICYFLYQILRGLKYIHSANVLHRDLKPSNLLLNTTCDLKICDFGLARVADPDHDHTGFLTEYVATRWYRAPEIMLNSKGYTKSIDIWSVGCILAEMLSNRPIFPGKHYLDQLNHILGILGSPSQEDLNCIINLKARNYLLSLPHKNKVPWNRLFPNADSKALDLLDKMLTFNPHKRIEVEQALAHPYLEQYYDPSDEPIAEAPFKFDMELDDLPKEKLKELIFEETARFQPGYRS

Take `CC[n+]1c(/C=C/c2ccc(-c3ccc4ncnc(Nc5ccc(OCc6cccc(F)c6)c(Cl)c5)c4c3)s2)sc2ccccc21`: the IC50 (as a rule, the midpoint of a concentration-inhibition curve) is 105 nM in [1]; 226 nM in [2]; 585 nM in assay [3]; above 20000 nM in [17]; 2130 nM in assay [18]. In addition, the outcome in assay [4], in [6], in assay [11], in [12], in assay [13] and in assay [14] was Active. Also, the result in assay [19] was Active. The result in assay [5], in [15] and in [16] was inactive. For the same compound, the DC50 (commonly the concentration at which degradation of the target reaches its halfway point) is 520 nM in assay [7] and 584 nM in assay [8]. For the same compound, the Activity entry in assay [7] (time 1450.0 min) is “Dose-Dependent Effect”. For the same compound, the inhibition entry in assay [9] and in assay [10] was “Active” in each case.

`CS(=O)(=O)CCNCc1ccc(-c2ccc3ncnc(Nc4ccc(OCc5cccc(F)c5)c(Cl)c4)c3c2)o1` [LAPATINIB]: the concentration for half-maximal inhibition (IC50) was above 5000 nM in [20] and above 20000 nM in assay [17].

For the compound `O=S(=O)(O)c1cc(O)c(O)c(S(=O)(=O)O)c1`, in assay [21], the result was Active.

Take `CC[n+]1c(/C=C/c2ccc(-c3ccc4ncnc(Nc5ccc(OCc6cccc(F)c6)c(Cl)c5)c4c3)o2)sc2ccccc21`: the IC50 in assay [1] was determined as 50 nM; in assay [2] it was 1560 nM.
